The test system of data set [1] is SA 1199‐B (norA overexpressing). Description: microbe, parasite or virus in culture. The format is cell-based, Staphylococcus aureus. The note with it: Staphylococcus aureus.
Data set [2] relates to SA 1199 (Wild‐type, basal). The data set is described as follows: MIC, broth microdilution (CLSI). The format is cell-based. The note with it: Staphylococcus aureus.
For data set [3], the system named is SA‐K1758 (∆norA). The data set is described as follows: microbe, parasite or virus in culture. The data set is classed as cell-based. The note with it: Staphylococcus aureus.
For data set [4], the system named is Staphylococcus aureus ATCC 25923 (Reference, basal). Description: MIC, broth microdilution (CLSI). The format is cell-based. The note with it: ATCC25923.
Data set [5] has as its system S. aureus strains. The note with it: cited from earlier work.
Data set [6] can be described thus: Solution‐state stability test in MH‐II broth. The data set is classed as physicochemical. The note with it: 512–1 µg mL^−1, 37 °C for a day, centrifuged. Here is the method: Before accessing the minimal inhibitory concentration (MIC), each phenazinium derivative was subjected to a solution‐state stability test. For this experiment, each derivative was solubilized in DMSO to achieve a primary stock solution (20 mg mL^−1). This stock was further diluted in MilliQ to achieve a working stock solution (10 mg mL^−1). […] The tubes were placed in an incubator at 37 °C for a day and later centrifuged at 25 000 rpm for 25 min.

≈ marks a conversion by molar mass, not a printed value. Entries after “also recorded” stand apart in the source; their conditions may differ. Read-outs that look alike come from different tables or passages of the source.

Regarding `CCn1cc(C(=O)O)c(=O)c2cc(F)c(N3CCNCC3)cc21` [NOR, norfloxacin, reference compound], the MIC was 32 µg/mL (≈ 100 µM) in data set [1]; 2 µg/mL (≈ 6.26 µM) in data set [2] (SA 1199 (Wild‐type, basal), read-out: MIC); 0.25 µg/mL (≈ 0.783 µM) in data set [3]; 2 µg/mL (≈ 6.26 µM) in data set [4].

On to `CC[n+]1c(-c2ccccc2)c2cc(N)ccc2c2ccc(N)cc21` [EtBrCW, Ethidium bromide], for which the “Efflux detection method EtBrCW” value in data set [5] (strain ATCC25923, ref [4]) is “Negative”; in data set [5] (strain ATCC25923_EtBr, ref [4]) it was “Positive (isolates were considered positive if they exhibited fluorescence at the highest EtBr concentration tested (> 2.5 mg/L))”; in data set [5] (strain BIOS-H1, ref [7]), “Negative”; in data set [5] (strain BIOS-H2, ref [7]) it was “Negative”; in data set [5] (strain BIOS-H3, ref [7]) it was “Negative”; in data set [5] (strain BIOS-H5, ref [7]), “Negative”. Moreover, the “Efflux detection method EtBrCW” value in data set [5] (strain BIOS-H6, ref [7]) is given as “Negative”; in data set [5] (strain BIOS-H12, ref [7]), “Negative”; in data set [5] (strain BIOS-H13, ref [7]), “Negative”; in data set [5] (strain BIOS-H17, ref [7]), “Negative”; in data set [5] (strain BIOS-H20, ref [7]), “Negative”; in data set [5] (strain BIOS-H21, ref [7]), “Negative”. The “Efflux detection method EtBrCW” value in data set [5] (strain BIOS-H22, ref [7]) is recorded as “Negative”; in data set [5] (strain BIOS-H25, ref [7]), “Negative”; in data set [5] (strain BIOS-H28, ref [7]) it was “Negative”; in data set [5] (strain BIOS-H29, ref [7]) it was “Negative”; in data set [5] (strain BIOS-H30, ref [7]), “Negative”; in data set [5] (strain BIOS-H32, ref [7]) it was “Negative”. Also, the “Efflux detection method EtBrCW” value in data set [5] (strain BIOS-V21, ref [8]) is on record as “Negative”; in data set [5] (strain BIOS-V31, ref [8]), “Negative”; in data set [5] (strain BIOS-V60, ref [8]), “Negative”; in data set [5] (strain BIOS-V61, ref [8]) it was “Negative”; in data set [5] (strain BIOS-V62, ref [8]), “Negative”; in data set [5] (strain BIOS-V74, ref [8]), “Negative”. Moreover, the “Efflux detection method EtBrCW” value in data set [5] (strain BIOS-V75, ref [8]) was “Negative”; in data set [5] (strain BIOS-V85, ref [8]), “Negative”; in data set [5] (strain BIOS-V118, ref [8]), “Negative”; in data set [5] (strain BIOS-V128, ref [8]) it was “Negative”; in data set [5] (strain BIOS-V147, ref [8]), “Negative”; in data set [5] (strain BIOS-V151, ref [8]) it was “Negative”. The “Efflux detection method EtBrCW” value is “Negative” in data set [5] (strain BIOS-V156, ref [8]); “Negative” in data set [5] (strain BIOS-V157, ref [8]); “Negative” in data set [5] (strain BIOS-V158, ref [8]); “Negative” in data set [5] (strain BIOS-V203, ref [8]); “Negative” in data set [5] (strain BIOS-V245, ref [8]); “Negative” in data set [5] (strain BIOS-V250, ref [8]). The “Efflux detection method EtBrCW” value in data set [5] (strain BIOS-V257, ref [8]) was “Negative”; in data set [5] (strain BIOS-V279, ref [8]), “Negative”; in data set [5] (strain BIOS-V295, ref [8]) it was “Negative”; in data set [5] (strain SA-1199, ref [2]), “Negative”; in data set [5] (strain SA-1199B, ref [2]) it was “Positive (isolates were considered positive if they exhibited fluorescence at the highest EtBr concentration tested (> 2.5 mg/L))”; in data set [5] (strain SA-K1748, ref [3]) it was “Positive (isolates were considered positive if they exhibited fluorescence at the highest EtBr concentration tested (> 2.5 mg/L))”. Moreover, the “Efflux detection method EtBrCW” value is reported as “Negative” in data set [5] (strain SA-K1758, ref [2]); “Positive (isolates were considered positive if they exhibited fluorescence at the highest EtBr concentration tested (> 2.5 mg/L))” in data set [5] (strain SM 1, ref [6]); “Negative^* (Isolates marked with (*) displayed fluorescence at intermediate EtBr concentrations (1–2 mg/L))” in data set [5] (strain SM 2, ref [6]); “Negative^* (Isolates marked with (*) displayed fluorescence at intermediate EtBr concentrations (1–2 mg/L))” in data set [5] (strain SM 3, ref [6]); “Negative” in data set [5] (strain SM 4, ref [6]); “Negative” in data set [5] (strain SM 5, ref [6]). Besides, the “Efflux detection method EtBrCW” value in data set [5] (strain SM 6, ref [6]) is “Negative”; in data set [5] (strain SM 7, ref [6]) it was “Negative”; in data set [5] (strain SM 8, ref [6]) it was “Negative^* (Isolates marked with (*) displayed fluorescence at intermediate EtBr concentrations (1–2 mg/L))”.

Consider `CCCCCCCCNc1ccc2nc3cc(NC(C)(C)C)c(N)cc3[n+](CCCCCCCC)c2c1` [5e2], for which the MIC in data set [1], in data set [2], in data set [3] and in data set [4] was 8 µg/mL each time. In addition, the “Solution state stability (concentration at which visible precipitation was observed)” value (“Solution state stability” for short) in data set [6] was “Stable”.

Take `CCCCNc1ccc2nc3cc(NCCC)c(N)cc3[n+](CCCC)c2c1` [5d1]: the MIC in data set [1] worked out at 16 µg/mL; in data set [2], 16 µg/mL; in data set [3], 8 µg/mL; in data set [4], 16 µg/mL. Also, in data set [6], the “Solution state stability” value is “Visible precipitation was observed at 128 µg mL^−1 and beyond”.

Take `CCCCNc1ccc2nc3cc(NCCC)c(N)cc3[n+](CCC)c2c1` [5a1]: the MIC in data set [1] amounted to 2 µg/mL; in data set [2], 1 µg/mL; in data set [3] it was 0.5 µg/mL; in data set [4], 1 µg/mL. In addition, the “Solution state stability” value in data set [6] was “Visible precipitation was observed at 128 µg mL^−1 and beyond”.

With `CCCNc1ccc2nc3cc(NCCOC)c(N)cc3[n+](CCC)c2c1` [5c2], the MIC was determined as 8 µg/mL in data set [1], 8 µg/mL in data set [2], 4 µg/mL in data set [3] and 4 µg/mL in data set [4]. Besides, the “Solution state stability” value in data set [6] is “excellent solubility and stability; also recorded: Stable”.

On to `CCCCCCCCNc1ccc2nc3cc(NCCCCCCCC)c(N)cc3[n+](CCCCCCCC)c2c1` [5e3], for which the MIC in data set [1] turned out to be 64 µg/mL; in data set [2], 64 µg/mL; in data set [3] it was 64 µg/mL; in data set [4], 32 µg/mL. Moreover, in data set [6], the “Solution state stability” value is “Visible precipitation was observed at 128 µg mL^−1”.

As to `CCCCNc1cc2nc3ccc(NCCC)cc3[n+](CCC)c2cc1N` [5c1], the MIC in data set [1] worked out at 2 µg/mL; in data set [2] it was 2 µg/mL; in data set [3] it was 0.5 µg/mL; in data set [4] it was 2 µg/mL. The “Solution state stability” value in data set [6] is recorded as “Stable”.

As for `CCCCNc1ccc2nc3cc(NCCCC)c(N)cc3[n+](CCCC)c2c1` [5d2], the MIC in data set [1] was 0.5 to 1 µg/mL; in data set [2], 1 µg/mL; in data set [3], 0.5 µg/mL; in data set [4], 1 µg/mL. Moreover, in data set [6], the “Solution state stability” value is “Visible precipitation was observed at 512 µg mL^−1 and beyond”.

With `CCCCCCCCNc1cc2nc3ccc(NCCCC)cc3[n+](CCC)c2cc1N` [5a3], the MIC turned out to be 64 µg/mL in data set [1], 64 µg/mL in data set [2], 8 µg/mL in data set [3] and 64 µg/mL in data set [4]. Also, the “Solution state stability” value in data set [6] is “Visible precipitation was observed at 128 µg mL^−1 and beyond”.

In the case of `CCCCCCCCNc1cc2nc3ccc(NCCCC)cc3[n+](CCCCCCCC)c2cc1N` [5b3], the MIC in data set [2], in data set [3] and in data set [4] was 32 µg/mL in each case. Also, the “Solution state stability” value in data set [6] is “Visible precipitation was observed at 128 µg mL^−1 and beyond”.

Turning to `CCCCCCCC[n+]1c2cc(NCCCC)ccc2nc2cc(NCCOC)c(N)cc21` [5b4], the MIC in data set [1] is 1 µg/mL; in data set [2], 1 µg/mL; in data set [3] it was 2 µg/mL; in data set [4] it was 1 µg/mL. Further, the “Solution state stability” value in data set [6] is “excellent solubility and stability; also recorded: Stable”.

For `CCCCCCCCNc1ccc2nc3cc(NCCC)c(N)cc3[n+](CCCCCCCC)c2c1` [5e1], the MIC in data set [1] was 16 µg/mL; in data set [2], 16 µg/mL; in data set [3], 8 µg/mL; in data set [4] it was 16 µg/mL. Further, the “Solution state stability” value in data set [6] was “Visible precipitation was observed at 128 µg mL^−1”.

Values taken from publication PMC12023841, “Unlocking the Gates: A Novel Diagnostic Molecule for Quantifying Efflux Levels in Gram‐Positive Bacteria” (Advanced Healthcare Materials, 2025).
